Experimental data from PubChem BioAssay (NCI).
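Protocol summary: plate cells (96-well), add compound at 5 concentrations, incubate 48 h, interpolate endpoints linearly. Abbreviation: GI50, concentration required for 50% inhibition of growth. Definition used: TGI = concentration required for complete inhibition of growth.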

Key:
Assay in all cases: NCI tumour cell line growth inhibition, 48 h
[1] = test system: 786-0 renal
[2] = test system: A498 renal
[3] = test system: A549 NSCLC
[4] = test system: ACHN renal
[5] = test system: BT-549 breast
[6] = test system: CAKI-1 renal
[7] = test system: CCRF-CEM leukemia
[8] = test system: COLO 205 colon
[9] = test system: DU-145 prostate
[10] = test system: HCC-2998 colon
[11] = test system: HCT-116 colon
[12] = test system: HCT-15 colon
[13] = test system: HL-60(TB) leukemia
[14] = test system: HOP-62 NSCLC
[15] = test system: HOP-92 NSCLC
[16] = test system: HS 578T breast
[17] = test system: HT29 colon
[18] = test system: IGROV1 ovarian
[19] = test system: K-562 leukemia
[20] = test system: KM12 colon
[21] = test system: LOX IMVI melanoma
[22] = test system: M14 melanoma
[23] = test system: MALME-3M melanoma
[24] = test system: MCF7 breast
[25] = test system: MDA-MB-231 breast
[26] = test system: MDA-MB-435
[27] = test system: MOLT-4 leukemia
[28] = test system: NCI-H226 lung
[29] = test system: NCI-H23 lung
[30] = test system: NCI-H460 lung
[31] = test system: NCI-H522 lung
[32] = test system: NCI/ADR-RES ovarian
[33] = test system: OVCAR-3 ovarian
[34] = test system: OVCAR-4 ovarian
[35] = test system: OVCAR-5 ovarian
[36] = test system: OVCAR-8 ovarian
[37] = test system: PC-3 prostate
[38] = test system: RPMI-8226 leukemia
[39] = test system: RXF 393 renal
[40] = test system: SF-268 CNS
[41] = test system: SF-295 CNS
[42] = test system: SF-539 CNS
[43] = test system: SK-MEL-2 melanoma
[44] = test system: SK-MEL-28 melanoma
[45] = test system: SK-MEL-5 melanoma
[46] = test system: SK-OV-3 ovarian
[47] = test system: SN12C renal
[48] = test system: SNB-19 CNS
[49] = test system: SNB-75 CNS
[50] = test system: SR leukemia
[51] = test system: SW-620 colon
[52] = test system: T-47D breast
[53] = test system: TK-10 renal
[54] = test system: U251 CNS
[55] = test system: UACC-257 melanoma
[56] = test system: UACC-62 melanoma
[57] = test system: UO-31 renal

Structure (SMILES): COc1cc2c3c(n(CCCN4CCN(CCO)CC4)c(=O)c2cc1OC)-c1cc2c(cc1C3=O)OCO2
- GI50 [1]: 4.97 µM
- TGI [1]: 18 µM
- GI50 [2]: 18.2 µM
- TGI [2]: 81.6 µM
- GI50 [3]: 4.23 µM
- TGI [3]: 20.7 µM
- GI50 [4]: 8.54 µM
- TGI [4]: > 44.4 µM
- GI50 [5]: 2.35 µM
- TGI [5]: 12.3 µM
- GI50 [6]: 6.53 µM
- TGI [6]: 42.2 µM
- GI50 [7]: 0.203 µM
- TGI [7]: 1.8 µM
- GI50 [8]: 15.1 µM
- TGI [8]: > 57.2 µM
- GI50 [9]: 0.107 µM
- TGI [9]: 2.41 µM
- GI50 [10]: 6.25 µM
- TGI [10]: 20.4 µM
- GI50 [11]: 1.14 µM
- TGI [11]: 7.79 µM
- GI50 [12]: 18.1 µM
- TGI [12]: > 61.2 µM
- GI50 [13]: 6.35 µM
- TGI [13]: > 41.7 µM
- GI50 [14]: 10.1 µM
- TGI [14]: 54 µM
- GI50 [15]: > 21.2 µM
- TGI [15]: > 100 µM
- GI50 [16]: > 100 µM
- TGI [16]: > 100 µM
- GI50 [17]: 3.06 µM
- TGI [17]: 15.9 µM
- GI50 [18]: > 34.2 µM
- TGI [18]: > 50.9 µM
- GI50 [19]: 5.95 µM
- TGI [19]: 29.4 µM
- GI50 [20]: 9.33 µM
- TGI [20]: 22.7 µM
- GI50 [21]: 3.72 µM
- TGI [21]: 8.77 µM
- GI50 [22]: 6.23 µM
- TGI [22]: 19.5 µM
- GI50 [23]: 15.3 µM
- TGI [23]: 31 µM
- GI50 [24]: 0.873 µM
- TGI [24]: 17.5 µM
- GI50 [25]: 4.97 µM
- TGI [25]: 18.3 µM
- GI50 [26]: > 100 µM
- TGI [26]: > 100 µM
- GI50 [27]: 0.0899 µM
- TGI [27]: 6.24 µM
- GI50 [28]: 7.49 µM
- TGI [28]: 28.4 µM
- GI50 [29]: 4.77 µM
- TGI [29]: 16.5 µM
- GI50 [30]: 0.972 µM
- TGI [30]: 18.4 µM
- GI50 [31]: > 33 µM
- TGI [31]: > 51.2 µM
- GI50 [32]: 18.2 µM
- TGI [32]: > 100 µM
- GI50 [33]: 13.2 µM
- TGI [33]: 28.3 µM
- GI50 [34]: 15.9 µM
- TGI [34]: > 50.7 µM
- GI50 [35]: 19.9 µM
- TGI [35]: 40.9 µM
- GI50 [36]: 7.62 µM
- TGI [36]: 28.3 µM
- GI50 [37]: 13.2 µM
- TGI [37]: 35.4 µM
- GI50 [38]: 0.559 µM
- TGI [38]: 3.91 µM
- GI50 [39]: 13.4 µM
- TGI [39]: 30.9 µM
- GI50 [40]: 5.23 µM
- TGI [40]: > 100 µM
- GI50 [41]: 1.55 µM
- TGI [41]: 25.2 µM
- GI50 [42]: 1.46 µM
- TGI [42]: 6.3 µM
- GI50 [43]: > 100 µM
- TGI [43]: > 100 µM
- GI50 [44]: 17.5 µM
- TGI [44]: 32.1 µM
- GI50 [45]: 13 µM
- TGI [45]: 26 µM
- GI50 [46]: 21.1 µM
- TGI [46]: > 78.9 µM
- GI50 [47]: > 100 µM
- TGI [47]: > 100 µM
- GI50 [48]: 14.3 µM
- TGI [48]: > 65.7 µM
- GI50 [49]: 9.87 µM
- TGI [49]: 31.7 µM
- TGI [50]: 1.34 µM
- GI50 [51]: 8.37 µM
- TGI [51]: 24.7 µM
- GI50 [52]: > 100 µM
- TGI [52]: > 100 µM
- GI50 [53]: 15.5 µM
- TGI [53]: 37 µM
- GI50 [54]: > 33.7 µM
- TGI [54]: > 48.6 µM
- GI50 [55]: 30.6 µM
- TGI [55]: > 81.4 µM
- TGI [56]: > 33.9 µM
- GI50 [57]: > 91.5 µM
- TGI [57]: > 100 µM
